From ChEMBL document CHEMBL1201862, “PubChem BioAssay data set” (2004)
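Results reflect a 48-hour exposure of cells in 96-well plates to compound at five concentrations. GI50 marks 50% less growth.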 Active and inactive are the calls of the source. No stated cut-off is given here; in the data, active = GI50 up to about 1.1 µM and inactive = higher.

Experiments:
Experiment in all cases: NCI tumour cell line growth inhibition, 48 h
SNB-19 = tested on: SNB-19
UACC-62 = tested on: UACC-62
NCI-H522 = tested on: NCI-H522
DMS-273 = tested on: DMS-273
KM12 = tested on: KM12
EKVX = tested on: EKVX
U-251 = tested on: U-251
A549 = tested on: A549
HCC 2998 = tested on: HCC 2998
HOP-92 = tested on: HOP-92
SK-MEL-5 = tested on: SK-MEL-5
M19-MEL = tested on: M19-MEL
IGROV-1 = tested on: IGROV-1
HCT-15 = tested on: HCT-15
OVCAR-4 = tested on: OVCAR-4
CAKI-1 = tested on: CAKI-1
OVCAR-8 = tested on: OVCAR-8
A498 = tested on: A498
COLO 205 = tested on: COLO 205
DLD-1 = tested on: DLD-1
SK-MEL-2 = tested on: SK-MEL-2
XF498 = tested on: XF498
DMS-114 = tested on: DMS-114
SW-620 = tested on: SW-620
SR = tested on: SR
SN12C = tested on: SN12C
SF-268 = tested on: SF-268
ACHN = tested on: ACHN
MOLT-4 = tested on: MOLT-4
HT-29 = tested on: HT-29
SK-MEL-28 = tested on: SK-MEL-28
RXF 631 = tested on: RXF 631
K562 = tested on: K562
UO-31 = tested on: UO-31
KM-20L2 = tested on: KM-20L2
LOX IMVI = tested on: LOX IMVI
HCT-116 = tested on: HCT-116
NCI-H226 = tested on: NCI-H226
HL-60 = tested on: HL-60
SF-539 = tested on: SF-539
RXF 393 = tested on: RXF 393
OVCAR-5 = tested on: OVCAR-5
SF-295 = tested on: SF-295
SNB-78 = tested on: SNB-78
NCI-H460 = tested on: NCI-H460
TK-10 = tested on: TK-10
CCRF-CEM = tested on: CCRF-CEM
HOP-62 = tested on: HOP-62
SNB-75 = tested on: SNB-75
UACC-257 = tested on: UACC-257
NCI-H23 = tested on: NCI-H23
SK-OV-3 = tested on: SK-OV-3
RPMI-8226 = tested on: RPMI-8226
LXFL 529 = tested on: LXFL 529
M14 = tested on: M14
786-0 = tested on: 786-0
OVCAR-3 = tested on: OVCAR-3
Malme-3M = tested on: Malme-3M

Compound: CC(=O)NNc1nc(C)c(C(=O)NNC(=O)C(=O)Nc2cccc(C(C)=O)c2)s1
- GI50 (SNB-19): 41 µM (inactive)
- GI50 (UACC-62): 16.3 µM (inactive)
- GI50 (NCI-H522): 15.2 µM (inactive)
- GI50 (DMS-273): 34.8 µM (inactive)
- GI50 (KM12): 24.7 µM (inactive)
- GI50 (EKVX): 42.7 µM (inactive)
- GI50 (U-251): 26.6 µM (inactive)
- GI50 (A549): 34.8 µM (inactive)
- GI50 (HCC 2998): 17.3 µM (inactive)
- GI50 (HOP-92): 13.4 µM (inactive)
- GI50 (SK-MEL-5): 95.3 µM (inactive)
- GI50 (M19-MEL): 19.9 µM (inactive)
- GI50 (IGROV-1): 26.5 µM (inactive)
- GI50 (HCT-15): 21.2 µM
- GI50 (OVCAR-4): 25.2 µM (inactive)
- GI50 (CAKI-1): 16.4 µM (inactive)
- GI50 (OVCAR-8): 20 µM (inactive)
- GI50 (A498): 20.7 µM (inactive)
- GI50 (COLO 205): 53.6 µM (inactive)
- GI50 (DLD-1): 28.1 µM (inactive)
- GI50 (SK-MEL-2): 36.1 µM (inactive)
- GI50 (XF498): 16.4 µM (inactive)
- GI50 (DMS-114): 18.3 µM (inactive)
- GI50 (SW-620): 39.5 µM (inactive)
- GI50 (SR): 18 µM (inactive)
- GI50 (SN12C): 15.9 µM (inactive)
- GI50 (SF-268): 21.5 µM (inactive)
- GI50 (ACHN): 16.9 µM (inactive)
- GI50 (MOLT-4): 45.3 µM (inactive)
- GI50 (HT-29): 50.2 µM (inactive)
- GI50 (SK-MEL-28): 19.7 µM (inactive)
- GI50 (RXF 631): 26.6 µM (inactive)
- GI50 (K562): 32.1 µM (inactive)
- GI50 (UO-31): 17.1 µM (inactive)
- GI50 (KM-20L2): 59 µM (inactive)
- GI50 (LOX IMVI): 21.2 µM (inactive)
- GI50 (HCT-116): 31.8 µM (inactive)
- GI50 (NCI-H226): 22.8 µM (inactive)
- GI50 (HL-60): 25.5 µM (inactive)
- GI50 (SF-539): 18.7 µM (inactive)
- GI50 (RXF 393): 16.5 µM (inactive)
- GI50 (OVCAR-5): > 100 µM (inactive)
- GI50 (SF-295): 31.4 µM (inactive)
- GI50 (SNB-78): 75.3 µM (inactive)
- GI50 (NCI-H460): 12.7 µM (inactive)
- GI50 (TK-10): 16.9 µM (inactive)
- GI50 (CCRF-CEM): 23.2 µM (inactive)
- GI50 (HOP-62): 25.3 µM (inactive)
- GI50 (SNB-75): 17.3 µM (inactive)
- GI50 (UACC-257): 23.1 µM (inactive)
- GI50 (NCI-H23): 17.5 µM (inactive)
- GI50 (SK-OV-3): 18.3 µM (inactive)
- GI50 (RPMI-8226): 40.1 µM (inactive)

Compound: COC1=CC(=Nc2c(Cl)cc(Cl)cc2OC(=O)c2ccc([N+](=O)[O-])cc2)C=C(OC)C1=O
- GI50 (SNB-19): 16.4 µM (inactive)
- GI50 (UACC-62): 4.26 µM (inactive)
- GI50 (NCI-H522): 9.23 µM (inactive)
- GI50 (DMS-273): 13.6 µM (inactive)
- GI50 (KM12): 15.5 µM (inactive)
- GI50 (EKVX): 16 µM (inactive)
- GI50 (U-251): 13.8 µM (inactive)
- GI50 (A549): 9.77 µM (inactive)
- GI50 (HCC 2998): 18.2 µM (inactive)
- GI50 (LXFL 529): 5.78 µM (inactive)
- GI50 (HOP-92): 5.62 µM (inactive)
- GI50 (M14): 13 µM (inactive)
- GI50 (SK-MEL-5): 7.05 µM (inactive)
- GI50 (M19-MEL): 3.41 µM (inactive)
- GI50 (IGROV-1): 14.5 µM (inactive)
- GI50 (HCT-15): 5.97 µM
- GI50 (OVCAR-4): 10 µM (inactive)
- GI50 (CAKI-1): 16.9 µM (inactive)
- GI50 (OVCAR-8): 7.35 µM (inactive)
- GI50 (786-0): 14.8 µM (inactive)
- GI50 (COLO 205): 17.5 µM (inactive)
- GI50 (DLD-1): 12.4 µM (inactive)
- GI50 (SK-MEL-2): 15.8 µM (inactive)
- GI50 (XF498): 8.39 µM (inactive)
- GI50 (DMS-114): 3.79 µM (inactive)
- GI50 (SW-620): 13.5 µM (inactive)
- GI50 (OVCAR-3): 8.67 µM (inactive)
- GI50 (SR): 3.22 µM (inactive)
- GI50 (SN12C): 11.8 µM (inactive)
- GI50 (SF-268): 9.64 µM (inactive)
- GI50 (ACHN): 10.7 µM (inactive)
- GI50 (MOLT-4): 2.87 µM (inactive)
- GI50 (HT-29): 18.4 µM (inactive)
- GI50 (SK-MEL-28): 16.7 µM (inactive)
- GI50 (Malme-3M): 15.5 µM (inactive)
- GI50 (RXF 631): 4.51 µM (inactive)
- GI50 (K562): 2.53 µM (inactive)
- GI50 (UO-31): 11.9 µM (inactive)
- GI50 (KM-20L2): 17.7 µM (inactive)
- GI50 (LOX IMVI): 1.81 µM (inactive)
- GI50 (HCT-116): 6.53 µM (inactive)
- GI50 (NCI-H226): 15.2 µM (inactive)
- GI50 (HL-60): 1.83 µM (inactive)
- GI50 (SF-539): 5.81 µM (inactive)
- GI50 (RXF 393): 12.1 µM (inactive)
- GI50 (OVCAR-5): 19.5 µM (inactive)
- GI50 (SF-295): 11.5 µM (inactive)
- GI50 (SNB-78): 23.3 µM (inactive)
- GI50 (NCI-H460): 14.4 µM (inactive)
- GI50 (TK-10): 22.8 µM (inactive)
- GI50 (CCRF-CEM): 2.87 µM (inactive)
- GI50 (HOP-62): 21.5 µM (inactive)
- GI50 (SNB-75): 14.2 µM (inactive)
- GI50 (UACC-257): 11.7 µM (inactive)
- GI50 (NCI-H23): 9.12 µM (inactive)
- GI50 (SK-OV-3): 16.5 µM (inactive)
- GI50 (RPMI-8226): 5.04 µM (inactive)
